Measured values published in US20240207282A1, “METHOD OF INCREASING CHAPERONE MEDIATED AUTOPHAGY BY STABILIZING THE INTERACTION OF RETINOIC ACID RECEPTOR-ALPHA AND AN INHIBITOR” (ALBERT EINSTEIN COLLEGE OF MEDICINE, priority 2021, published 2024).

How the values were obtained:
human cells = test: CMA activity, KFERQ-PS-Dendra reporter in human cells; assay type: cell-based
Experimental: (§1) Cells: NIH3T3 mouse fibroblasts and the N2a neuroblastoma cell line were obtained from the American Type Culture Collection and were validated by genomic PCR. Primary human fibroblasts (GM01651) were from Coriell Repository. All the cells lines were tested for mycoplasma contamination using DNA staining protocol with Hoechst 33258 dye. Knock-down of NCoR1 was done using lentiviral mediated shRNA (SHCLNG-NM_011308) from the Sigma Mission library following standard procedures. Efficiency of knock-down was tested by immunoblot. Cell viability was measured using the CellTiter-Blue kit (Promega) 24 h after the addition of the different stressors according to manufacturer's instructions.
(§2) CMA activity: Cells were transduced with lentivirus carrying the KFERQ-PS-Dendra reporter as before. Cells were photoactivated by exposure to a 3.5 mA (current constant) light emitting diode (LED: Norlux, 405 nm) for 3 min and then plated in glass-bottom 96 well plates. At the desired times, cells were fixed with 4% PFA and imaged using high-content microscopy (Operetta system, Perkin Elmer). Images were quantified using the manufacturer's software in a minimum of 1,200 cells in 9 independent fields per well. […] To avoid con-funding effects for drug-induced changes in cell volume or adherence to the plate that could bring a fraction of the cells per field outside of focus, we set a threshold to count only cells that have at least 1/10 of the average number of […] detected in the untreated wells for each cell type (3-4 puncta/cell in the case of NIH3T3 and N2a cells and 5 puncta/cell in primary human fibroblasts). […] Slices were mounted in DAPI-Fluoromount-G to highlight the cell nucleus and allow quantification of puncta per cell. Images were acquired in x-y-z planes with an Axiovert 200 fluorescence microscope (Carl Zeiss Ltd) with a ×63 objective and 1.4 numerical aperture, mounted with an ApoTome.2 slider or with a Confocal microscope (TCS SP5; Leica) using an HCX Plan Apo CS×63.0 1.40 NA oil objective and the Leica Application Suite X (LAS X).

neuron-related cells = test: CMA activity, KFERQ-PS-Dendra reporter in neuron-related cells; assay type: cell-based, mouse; conditions: for CMA activation: neuronal-related mouse cells
Experimental: as §1, §2

[1] = target: T1, human RARα LBD / NCoR1 peptide (Homo sapiens, UniProt P10276); test: Fluorescence polarization binding assay, RARα LBD with FITC-NCoR1 peptide; conditions: 10 μM compound
T1 construct: human RARα (residues 176-421); His tag; made in house; host or cells: Escherichia coli BL21(DE3)
T1 sequence (P10276 176-421, other chains not shown): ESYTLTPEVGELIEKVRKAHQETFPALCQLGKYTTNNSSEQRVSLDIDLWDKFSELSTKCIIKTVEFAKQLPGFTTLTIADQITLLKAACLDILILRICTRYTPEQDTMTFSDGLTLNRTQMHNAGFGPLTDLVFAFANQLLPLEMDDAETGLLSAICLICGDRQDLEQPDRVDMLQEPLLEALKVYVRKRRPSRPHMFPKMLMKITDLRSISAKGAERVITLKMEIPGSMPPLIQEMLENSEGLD
Experimental: The histidine-tagged ligand binding domain (LBD) of human RARα (residues 176-421) was expressed in Escherichia colic BL21(DE3). Cells were grown at 37° C. in LB medium supplemented with 50 μg/mL kanamycin until OD600 reached about 0.8. Expression of T7 polymerase was induced by addition of isopropyl-b-d-thiogalactoside (IPTG) to a final concentration of 0.8 mM and cells were incubated at 20° C. overnight. Cell cultures were harvested by centrifugation at 8,000×g for 15 mins. The cell pellet from 1 liter of RARα LBD was resuspended in 50 mL lysis buffer (20 mM Tris-HCl pH 8, 500 mM NaCl, 25 mM imidazole) supplemented with ONE COMPLETE, an EDTA-free protease inhibitor tablet (Roche Applied Science). The suspension was lysed using a high-pressure homogenizer and centrifuged at 35,000×g at 4° C. for 45 minutes. […]
The fluorescein-tagged peptide of NCoR1, FITC-Ahx-RLITLADHICQIITQDFAR (FITC-NCoR1) was provided by Genscript at purity>95%. Fluorescence polarization assays (FPA) were performed using established procedures. […] Fluorescence polarization was measured at 30 min on a F200 PRO microplate reader (TECAN) with the excitation wavelength set at 470 nm and emission measured at 530 nm. EC50 values were calculated by nonlinear regression analysis of competitive binding curves using Graphpad Prism software.

NIH3T3 = test: Intracellular proteolysis of long half-life proteins (3H-leucine); assay type: cell-based, mouse; conditions: 10 μM; duration of increase after addition
Experimental: Proteolysis was calculated from aliquots of the medium taken at different times and precipitated in trichloroacetic acid, as the amount of acid-precipitable radioactivity transformed to acid-soluble radioactivity at each time.

[2] = Pharmacokinetics in mice (plasma and brain); assay type: in vivo, mouse; conditions: mice; for brain to plasma ratio: i.v. or p.o.
Experimental: ICR (CD-1) male mice were fasted at least three hours and water was available ad libitum before the study. Animals were housed in a controlled environment, target conditions: temperature 18 to 29° C., relative humidity 30 to 70%. Temperature and relative humidity was monitored daily. An electronic time controlled lighting system was used to provide a 12 hr light/12 hr dark cycle. 3 mice for each indicated time point were administered 30 mg/Kg CA39 or CA77 by oral gavage or 1 mg/Kg CA39 or CA77 by intravenous injection using 30% PEG-400, 65% D5W (5% dextrose in water), 5% Tween-80 vehicle. Mice were sacrificed, and brain samples were harvested at 0 hr, 0.25 hr, 0.5 hr, 1 hr, 2 hr, 4 hr, 8 hr, 24 hr, and analyzed for CA39 or CA77 levels using LC-MS/MS. Pharmacokinetics parameters were calculated using Phoenix WinNonlin 6.3. Experiments performed at SIMM-SERVIER joint Biopharmacy Laboratory.

| SMILES | CMA activation (human cells) | CMA activation after removal of compound (neuron-related cells; compound removed from the media) | CMA activation (neuron-related cells) | NCoR1 peptide binding to RARα [1] | intracellular rates of degradation of long-lived proteins (NIH3T3) | blood brain barrier crossing [2] | half-life in brain ([2]; IV 1 mg/kg) [h] | half-life in brain ([2]; PO 30 mg/kg) [h] | half-life in plasma ([2]; PO 30 mg/kg) [h] | brain to plasma ratio [2] | half-life ([2]; male, ICR (CD-1), mouse, plasma, intravenous, 1 mg/kg, route not printed (second pair of values), read-out: half-life in plasma (converted)) [h] |
| --- | --- | --- | --- | --- | --- | --- | --- | --- | --- | --- | --- |
| CC(=O)Nc1ccc(C2=Nc3ccc(Cl)cc3OC2)cc1 [CA77] | efficiently activate CMA | persisted and even further increased after the compound was removed from the media | efficiently activate CMA | enhanced NCoR1 peptide binding to RARα | remained upregulated 24 h after adding | efficiently crossed the brain blood barrier | 1.8 | 4.2 | 2.2 | high |  |
| Clc1ccc2c(c1)OCC(c1ccc(-c3ccccc3)cc1)=N2 [CA39] | efficiently activate CMA |  | efficiently activate CMA | enhanced NCoR1 peptide binding to RARα | remained upregulated 24 h after adding | efficiently crossed the brain blood barrier | 8 | 10 | 7.5 | high | 8.2 |
